Experiments:
EGFR tyrosine kinase = target: T1, EGFR tyrosine kinase (Homo sapiens, UniProt P00533); assay: Test (a) protein tyrosine kinase phosphorylation assay, EGFR; assay type: biochemical; conditions: read-out: IC50 Test (a): Inhibition of EGFR tyrosine kinase protein phosphorylation
T1 construct: Recombinant intracellular fragments of EGFR, erbB2 and erbB4; made in house; host or cells: baculovirus/Sf21 insect cells (cleared lysate used)
Protocol: (§1) a) Protein Tyrosine Kinase phosphorylation Assays
(§2) This test measures the ability of a test compound to inhibit the phosphorylation of a tyrosine containing polypeptide substrate by EGFR, erbB2 and erbB4 tyrosine kinase enzyme.
(§3) Recombinant intracellular fragments of EGFR, erbB2 and erbB4 (accession numbers X00588, X03363 and L07868 respectively) were cloned and expressed in the baculovinis/Sf21 system. […]
(§4) Constitutive kinase activity of these recombinant proteins was determined by their ability to phosphorylate a synthetic peptide (made up of a random co-polymer of Glutamic Acid, Alanine and Tyrosine in the ratio of 6:3:1). […]
(§5) The immobilised phospho-peptide product of the reaction was detected by immunological methods. […] After further washing, HRP activity in each well of the plate was measured colorimetrically using 22′-Azino-di-[3-ethylbenzthiazoline sulfonate (6)]diammonium salt crystals (ABTS™ from Roche) as a substrate.
(§6) Quantification of colour development and thus enzyme activity was achieved by the measurement of absorbance at 405 nm on a Molecular Devices ThermoMax microplate reader. Kinase inhibition for a given compound was expressed as an IC50 value. […] The range of phosphorylation was calculated from the positive (vehicle plus ATP) and negative (vehicle minus ATP) control values.

BT474C cells = assay: Test (e) BT474C cell proliferation assay; assay type: cell-based; conditions: Homo sapiens, 96 h, four-day MTS assay, read-out: IC50 Test (e): Inhibition of proliferation of BT474C cells
Description: The BT-474 tumour cell line (human mammary carcinoma) was obtained from Dr Baselga (at Laboratorio Recerca Oncologica, Paseo Vall D'Hebron 119-129, Barcelona 08035, Spain). This cell line was subcloned and a certain population (hereinafter referred to as “BT474C”) was obtained.
e) BT474C Cell Proliferation Assay
BT474C cells are a sub-cloned population of in vivo competent cells, as discussed above.
The BT474C assay is a MTS (3-(4,5-dimethylthiazol-2-yl)-5-(3-carboxymethoxyphenyl)-2-(4-sulfophenyl)-2H-tetrazolium, inner salt—Promega G1111) endpoint-based cell proliferation assay, which measures the ability of a test compound to inhibit the proliferation of cells over a four-day period. […] Cell density is measured using a haemocytometer and viability is calculated using Trypan Blue solution before being further diluted in Assay Medium and seeded at a density of 1×10^4 cells per well (in 100 μl) into clear bottomed 96 well plates (Costar 3598). […] The plate is read at 490 nm on a spectrophotometer.
Assay plates are left at 37° C. for 4 days and then treated with MTS solution (as above), which is converted to a soluble formazan product by active cells. After incubating the plates for 2 hours the reaction is stopped by the addition of 10% SDS (Sodium dodecyl sulphate) and the plates are read at 490 nm on a spectrophotometer giving absorbance values relative to the concentration of converted dye. […]

erbB2 tyrosine kinase = target: T2, erbB2 tyrosine kinase (Homo sapiens, UniProt P04626); assay: Test (a) protein tyrosine kinase phosphorylation assay, erbB2; assay type: biochemical; conditions: read-out: IC50 Test (a): Inhibition of erbB2 tyrosine kinase protein phosphorylation
T2 construct: Recombinant intracellular fragments of EGFR, erbB2 and erbB4; made in house; host or cells: baculovirus/Sf21 insect cells (cleared lysate used)
Protocol: as §1, §2, §3, §4, §5, §6

T1 sequence (P00533 669-1210 limits assumed): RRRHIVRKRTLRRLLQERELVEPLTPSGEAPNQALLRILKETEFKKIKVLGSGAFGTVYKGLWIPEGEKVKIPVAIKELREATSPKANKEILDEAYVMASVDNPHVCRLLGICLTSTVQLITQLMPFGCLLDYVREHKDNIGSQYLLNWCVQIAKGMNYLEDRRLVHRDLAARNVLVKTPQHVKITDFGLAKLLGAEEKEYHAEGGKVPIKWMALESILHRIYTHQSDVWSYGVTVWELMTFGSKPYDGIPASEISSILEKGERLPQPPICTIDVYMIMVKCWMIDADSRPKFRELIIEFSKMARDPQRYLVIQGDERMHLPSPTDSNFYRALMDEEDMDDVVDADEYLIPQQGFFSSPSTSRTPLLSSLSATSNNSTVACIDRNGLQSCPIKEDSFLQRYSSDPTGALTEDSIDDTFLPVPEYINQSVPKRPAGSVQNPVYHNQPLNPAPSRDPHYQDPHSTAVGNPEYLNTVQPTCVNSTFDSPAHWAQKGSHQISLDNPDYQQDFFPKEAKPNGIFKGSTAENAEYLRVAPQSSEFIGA
T2 sequence (P04626 676-1255 limits assumed): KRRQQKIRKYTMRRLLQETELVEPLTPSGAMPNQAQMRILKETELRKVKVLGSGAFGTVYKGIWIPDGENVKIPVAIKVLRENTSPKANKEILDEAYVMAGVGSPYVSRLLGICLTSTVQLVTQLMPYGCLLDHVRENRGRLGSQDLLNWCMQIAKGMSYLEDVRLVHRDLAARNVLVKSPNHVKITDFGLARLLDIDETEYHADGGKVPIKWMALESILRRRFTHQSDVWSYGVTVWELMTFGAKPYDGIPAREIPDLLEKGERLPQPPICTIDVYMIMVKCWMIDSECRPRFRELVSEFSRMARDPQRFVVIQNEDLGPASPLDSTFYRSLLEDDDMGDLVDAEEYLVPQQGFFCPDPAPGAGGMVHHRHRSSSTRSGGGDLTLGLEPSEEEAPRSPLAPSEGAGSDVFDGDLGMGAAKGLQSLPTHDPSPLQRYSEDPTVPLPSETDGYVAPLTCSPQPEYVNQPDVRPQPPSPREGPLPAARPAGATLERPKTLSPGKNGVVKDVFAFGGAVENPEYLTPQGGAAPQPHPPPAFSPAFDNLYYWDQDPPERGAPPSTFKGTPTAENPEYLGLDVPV

IC50 (EGFR tyrosine kinase) | IC50 (BT474C cells) | IC50 (erbB2 tyrosine kinase) | Structure (SMILES)
362 nM | 337 nM | 8 nM | C[C@@H](Oc1cccc2ncnc(Nc3ccc(OCC4CCCO4)c(Cl)c3)c12)C(=O)N1CCOCC1 (stereo partly drawn) [Example 2, N-[3-chloro-4-(tetrahydrofuran-2-ylmethoxy)phenyl]-5-[(1R)-1-methyl-2-morpholin-4-yl-2-oxoethoxy]quinazolin-4-amine]
169 nM | 418 nM | 3 nM | CSCCCOc1ccc(Nc2ncnc3cccc(O[C@H](C)C(=O)N4CCOCC4)c23)cc1Cl [Example 3, N-{3-chloro-4-[3-(methylthio)propoxy]phenyl}-5-[(1R)-1-methyl-2-morpholin-4-yl-2-oxoethoxy]quinazolin-4-amine]

Source: patent US20100222344A1, “4-ANILINO-SUBSTITUTED QUINAZOLINE DERIVATIVES AS TYROSINE KINASE INHIBITORS” (AstraZeneca AB, priority 2005, published 2010)
